For one assay, the system named is transferase enzyme. As to the kind of experiment: Scintillation proximity assay of transferase alone, with pre-formed Lipid I and Tunicamycin block, using E. coli AMA1004 ΔponB membranes (Example 4). The class given is biochemical, Escherichia coli. To be noted: after subtracting 0% reaction readings. As for the experimental part: Microbiol., (1985), 131, 2839-2845. The plate was incubated for 20 min at 37° C.
(ii) Tunicamycin was then added to a final concentration of 10 μg/ml, followed by a test compound (e.g. Vancomycin or Nisin) of varying concentration in dimethyl sulphoxide. Nisin and Vancomycin are known antagonists of the transferase enzyme.
(iii) Then to the reaction well, in a 5 μl volume, the substrate for the transferase was added: 2.5 μM tritiated UDP-N-acetyl glucosamine (0.5 μCi per well). The microtitre plate was incubated for 5 min at 37° C.
(iv) The reaction was terminated by diluting out the radiolabel i.e. by addition of 25 μl of 200 μM unlabelled UDP-GlcNAc.
For orientation: SPA uses beads or plates that emit light when radiolabelled molecules are held near them.

Assay [1] concerns translocase and transferase enzymes. The assay is described as follows: Scintillation proximity assay of Lipid II synthesis (translocase plus transferase) with lysozyme-prepared E. coli AMA1004 membranes (Example 3). Particulars: 100 μM test compound; after subtracting 0% reaction readings.
Description: (i) The wells of a microtitre plate were individually filled with a total volume of 25 μl of a reaction mixture comprising an aqueous buffer solution of 50 mM HEPES-ammonia (N-[2-Hydroxyethyl]piperazine-N′-[2-ethanesulfonic acid]) (pH 7.5), and 10 mM magnesium chloride 15 μM UDP-MurNAc-L-alanine-γ-D-glutamic acid-m-diaminopimelic acid-D-alanine-D-alanine, 2.5 μM tritiated UDP-N-acetyl glucosamine (0.2 μCi per well), 6 μg of Escherichia coli AMA1004 cell membranes prepared as described below and a solution of test compound (e.g. Tunicamycin, Vancomycin) of varying concentration in 4% dimethylsulphoxide.
Four wells of the microtitre plate were used as controls: two wells contained no UDP-N-acetylmuramylpentapeptide (0% reaction controls) and a further two wells contained no test compound (100% reaction controls).
If the purpose of the screen is to study the effect of an inhibitor of the transferase or translocase the test compound is added along with the substrates at step (i).
The E. coli membranes were prepared as follows.
Four to five colonies of the bacteria from an LB (Luria Bertani medium) agar plate were inoculated into 5 ml LB-broth and grown during the day (for 6-8 hours) at 37° C. […]
The plate was left for 3 hours/overnight at room temperature before being counted in the “Microbeta Trilux” counter.

For the compound Nisin, the “% Enzyme Activity” value in the assay with transferase enzyme (10 μg/ml test compound) is given as “˜30%”.

Turning to `CN[C@H](CC(C)C)C(=O)N[C@H]1C(=O)N[C@@H](CC(N)=O)C(=O)N[C@H]2C(=O)N[C@H]3C(=O)N[C@H](C(=O)N[C@H](C(=O)O)c4cc(O)cc(O)c4-c4cc3ccc4O)[C@H](O)c3ccc(c(Cl)c3)Oc3cc2cc(c3O[C@@H]2O[C@H](CO)[C@@H](O)[C@H](O)[C@H]2O[C@H]2C[C@](C)(N)[C@H](O)[C@H](C)O2)Oc2ccc(cc2Cl)[C@H]1O` [Vancomycin], the “% Enzyme Activity” value with transferase enzyme (100 μM test compound) is listed as “˜50%”. In assay [1], the % Inhibition (commonly the percentage by which the read-out fell short of the control) is on record as 82%.

The values are drawn from US20060172361A1, “Assay for detection of translocase enzyme activity in drug screening” (AstraZeneca AB, priority 2000, published 2006).
